The target of test [1] is T1, CBP80/CBP20 complex (Homo sapiens, UniProt Q09161).
T1 sequence (Q09161 1-790): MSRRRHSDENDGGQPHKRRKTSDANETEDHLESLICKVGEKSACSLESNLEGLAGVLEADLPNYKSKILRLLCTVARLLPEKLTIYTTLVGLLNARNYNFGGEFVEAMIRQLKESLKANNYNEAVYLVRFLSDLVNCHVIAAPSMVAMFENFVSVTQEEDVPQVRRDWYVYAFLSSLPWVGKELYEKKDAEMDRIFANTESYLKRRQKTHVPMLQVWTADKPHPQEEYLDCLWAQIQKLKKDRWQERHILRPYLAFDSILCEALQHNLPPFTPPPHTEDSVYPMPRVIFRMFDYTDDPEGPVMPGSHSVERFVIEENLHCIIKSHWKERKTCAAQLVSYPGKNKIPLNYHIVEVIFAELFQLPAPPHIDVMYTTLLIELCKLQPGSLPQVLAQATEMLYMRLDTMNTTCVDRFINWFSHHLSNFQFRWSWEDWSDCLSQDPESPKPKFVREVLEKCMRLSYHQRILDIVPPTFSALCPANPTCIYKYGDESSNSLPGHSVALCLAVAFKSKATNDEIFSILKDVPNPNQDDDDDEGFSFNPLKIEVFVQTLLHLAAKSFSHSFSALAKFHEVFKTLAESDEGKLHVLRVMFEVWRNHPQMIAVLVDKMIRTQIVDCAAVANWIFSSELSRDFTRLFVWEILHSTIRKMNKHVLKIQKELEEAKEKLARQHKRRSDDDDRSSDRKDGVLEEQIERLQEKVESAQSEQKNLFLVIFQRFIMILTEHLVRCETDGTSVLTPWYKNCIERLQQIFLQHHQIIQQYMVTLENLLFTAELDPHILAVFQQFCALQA
T1 sequence (P52298 1-156 partner): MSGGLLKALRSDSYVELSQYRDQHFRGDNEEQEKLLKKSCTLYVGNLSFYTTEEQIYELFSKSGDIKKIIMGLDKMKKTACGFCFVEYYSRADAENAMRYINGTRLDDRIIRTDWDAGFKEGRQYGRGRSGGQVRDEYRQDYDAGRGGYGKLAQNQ
The test is described as follows: fluorescence polarization based competition assay (displacement of FITC-labeled PGC1β peptide). The note with it: 1 μM FITC-labeled PGC1β (FITC-Ahx-AMDFDSLLKEAQQSLH-NH2), 30 μM CBP80/CBP20 complex, HEPES buffer pH 7.5. Type of test: binding. The procedure:
The ability of α-MOrPHs to disrupt the PGC1β-CBP80 interaction will be assessed and quantified via a fluorescence polarization-based competition assay, in which disruption of the complex formed between a fluorescein-conjugated PGC1β peptide and CBP80 is measured upon adding increasing concentrations of each inhibitory α-MOrPH (FIG. 5A). […] Initially, the length of the linker in the inhibitory α-MOrPH will be optimized for maximal activity toward disrupting the PGC1β-CBP80 interaction (e.g. using SP1-3, FIG. 4).
(§1) The relative activity of the PGC1β mimics toward disrupting the interaction between CBC and the fluorescein-conjugated PGC1β-derived peptide was measured in a competition assay. Briefly, a fixed amount of CBC and fluorescein-conjugated PGC1β-derived peptide are incubated with increasing amounts of the PGC1β mimic (FIG. 11A). From the resulting dose-dependent inhibition curves, the in vitro CBC inhibitory activity of the PGC1β mimic compound is measured based on their respective half-maximal inhibitory concentration (IC50) (FIG. 5B). Using this assay, various PGC1β mimics were evaluated for their relative ability to target CBC and disrupt its binding interaction with PGC1β. […] Short peptides derived from the C-terminal domain of PGC1β and PRC proteins, two other members of the PGC1 family of transcriptional coactivators, were also to bind CBC and inhibits its interaction with the fluorescein-labeled PGC1β peptide with IC50 values in the low micromolar range.
IC50 values were determined by adapting the fluorescence polarization assay described above to a competition format. 1 μM of the FITC-labeled PGC1β peptide (FITC-Ahx-AMDFDSLLKEAQQSLH-NH2) was incubated with 30 μM of the CBP80-CBP20 complex in HEPES Buffer (10 mM HEPES [pH 7.5], 50 mM NaCl and 5 mM 2-mercaptoethanol). The inhibitory peptide was added to the solution at varying concentrations, typically ranging from 1 to 200 μM. Half-maximal inhibitory concentration (IC50) values were calculated from the resulting inhibition curves as given by dose-dependent decrease in the fluorescence polarization signal. All measurements were performed at least in duplicates.

Test [2] concerns the target T2, CBP80/CBP20 complex (human, UniProt Q09161 20-790; P52298 1-156, limits assumed).
T2 construct: Used in the fluorescence polarization assays; In the crystal it also carried the cap analogue (m7GpppG / m7GpppA); also called CBC complex; CBC
T2 sequence (looked up) 1: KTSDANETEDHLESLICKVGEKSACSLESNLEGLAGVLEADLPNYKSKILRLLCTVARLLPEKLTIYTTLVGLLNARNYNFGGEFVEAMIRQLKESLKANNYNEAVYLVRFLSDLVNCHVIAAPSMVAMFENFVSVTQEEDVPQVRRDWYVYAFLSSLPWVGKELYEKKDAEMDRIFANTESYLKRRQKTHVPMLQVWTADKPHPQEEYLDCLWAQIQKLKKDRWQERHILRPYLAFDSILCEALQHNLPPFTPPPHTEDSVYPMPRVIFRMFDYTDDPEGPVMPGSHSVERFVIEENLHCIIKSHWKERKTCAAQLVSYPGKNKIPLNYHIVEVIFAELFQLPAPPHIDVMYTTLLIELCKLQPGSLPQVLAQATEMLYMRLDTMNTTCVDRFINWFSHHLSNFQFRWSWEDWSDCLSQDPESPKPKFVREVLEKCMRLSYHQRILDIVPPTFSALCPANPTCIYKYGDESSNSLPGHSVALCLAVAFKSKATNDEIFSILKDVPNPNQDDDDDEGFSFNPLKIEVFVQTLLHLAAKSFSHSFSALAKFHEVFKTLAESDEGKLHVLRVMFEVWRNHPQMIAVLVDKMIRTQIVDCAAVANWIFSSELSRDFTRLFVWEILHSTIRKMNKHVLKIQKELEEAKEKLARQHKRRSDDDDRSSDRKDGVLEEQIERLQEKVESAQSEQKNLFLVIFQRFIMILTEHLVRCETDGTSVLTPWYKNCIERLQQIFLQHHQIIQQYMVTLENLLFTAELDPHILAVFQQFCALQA
T2 sequence (looked up) 2: T1 sequence (P52298 1-156 partner)
The test can be described thus: FP competition assay; 1 µM FITC-Ahx-…-NH2 as competitor, 30 µM CBP80/CBP20 complex. The procedure: as §1, with “(IC₅₀)” for “(IC50)”, “IC₅₀” for “IC50”
^aAc = acetyl; Biot = biotin; Ahx = 6-aminohexanoic acid; Aib = 2-aminoisobutyric acid; CrtDab = N^γ-crotonyl-2,4-diaminobutyric acid. C-terminal ‘-NH₂’ refers to amidated C-terminal end of the peptide. ^bIC₅₀ was determined using fluorescence polarization based competition assay in the presence of 1 μM of FITC-labeled PGC1β (FITC-Ahx-[…]-NH₂, where FITC is fluorescein-isothiocyanate) and 30 μM of the CBP80/CBP20 complex in HEPES buffer (10 mM HEPES, 50 mM NaCl, 5 mM BME, pH 7.5).
IC₅₀ values were determined by adapting the fluorescence polarization assay described above to a competition format. 1 μM of the FITC-labeled PGC1β peptide (FITC-Ahx-[…]-NH₂) was incubated with 30 μM of the CBP80-CBP20 complex in HEPES Buffer (10 mM HEPES [pH 7.5], 50 mM NaCl and 5 mM 2-mercaptoethanol).

Square brackets hold non-standard residues; d marks the D form. Peptide text beside a SMILES is read from it. * marks the point of attachment. Crotonyl(E) = C/C=C/C(=O)*; Dab = NCC[C@H](N)C(=O)O; Aib = CC(C)(N)C(=O)O A value given as a limit tells only on which side of the number the result lay.

On to `CSCC[C@H](NC(C)=O)C(=O)N[C@@H](C)C(=O)N[C@@H](Cc1ccccc1)C(=O)N[C@@H](CC(=O)O)C(=O)N[C@@H](CO)C(=O)N[C@@H](CC(C)C)C(=O)N[C@@H](CC(C)C)C(=O)N[C@@H](CCCCN)C(=O)NC(C)(C)C(=O)N[C@@H](C)C(=O)N[C@@H](CCC(N)=O)C(=O)N[C@@H](CCC(N)=O)C(=O)N[C@@H](CO)C(N)=O` [PGC1β-16, Ac-MAFDSLLK(Aib)AQQS-NH2] (Ac-MAFDSLLK[Aib]AQQS-NH2), for which the IC50 at CBP80/CBP20 complex [1] is less than 100 µM. For the molecule `C/C=C/C(=O)NCC[C@H](NC(=O)[C@H](CC(C)C)NC(=O)[C@H](CC(C)C)NC(=O)[C@H](CO)NC(=O)[C@H](CC(=O)O)NC(=O)[C@H](Cc1ccccc1)NC(=O)[C@H](CC(=O)O)NC(=O)[C@H](CCSC)NC(C)=O)C(=O)N[C@@H](CCC(=O)O)C(=O)N[C@@H](C)C(=O)N[C@@H](CCC(N)=O)C(=O)N[C@@H](CCC(N)=O)C(=O)N[C@@H](CO)C(N)=O` [PGC1β-18, Ac-MDFDSLL(CrtDab)EAQQS-NH2] (Ac-MDFDSLL[Dab](Crotonyl(E))EAQQS-NH2), the IC50 at CBP80/CBP20 complex [1] was less than 100 µM. Still for that read-out and setting: in the case of “Ac-AMDFDSLLKEAQQSLH-NH2 [PGC1β-Cterm, Ac-AMDFDSLLKEAQQSLH-NH2]” it was roughly 35 µM. On the same count and under the same terms, in the case of “Ac-MAFDSLLKAAQQS-NH2 [PGC1β-15, Ac-MAFDSLLKAAQQS-NH2]” it was less than 100 µM; in that of “Ac-MAFDSLLKNAAAS-NH2 [PGC1β-13, Ac-MAFDSLLKNAAAS-NH2]”, less than 100 µM; in that of “Ac-MAFDSLLKNAAQS-NH2 [PGC1β-14, Ac-MAFDSLLKNAAQS-NH2]”, less than 100 µM. On the same count and under the same terms, in the case of “Ac-MAFDSMLKAAQQS-NH2 [PGC1β-17, Ac-MAFDSMLKAAQQS-NH2]” it was less than 100 µM; in that of “Ac-MDADSLLKEAQQS-NH2 [PGC1β-3A, Ac-MDADSLLKEAQQS-NH2]”, greater than 200 µM. Turning to “Ac-MDFASLLKEAQQS-NH2 [PGC1β-4A, Ac-MDFASLLKEAQQS-NH2]”, at CBP80/CBP20 complex [1], the IC50 is greater than 200 µM.

For “Ac-MDFDALLKEAQQS-NH2 [PGC1β-5A, Ac-MDFDALLKEAQQS-NH2]”, on CBP80/CBP20 complex [1], the IC50 was 64 ± 2 µM. On the same count and under the same terms, in the case of “Ac-MDFDSALKEAQQS-NH2 [PGC1β-6A, Ac-MDFDSALKEAQQS-NH2]” it was greater than 200 µM; in that of “Ac-MDFDSLAKEAQQS-NH2 [PGC1β-7A, Ac-MDFDSLAKEAQQS-NH2]”, greater than 200 µM; in that of “Ac-MDFDSLLKEAAQS-NH2 [PGC1β-11A, Ac-MDFDSLLKEAAQS-NH2]”, 64 ± 2 µM. Molecule “Ac-MDFDSLLKEAQQS-NH2 [PGC1β-wt, Ac-MDFDSLLKEAQQS-NH2]” came in with an IC50 at CBP80/CBP20 complex [1] of 69 µM. Turning to “Ac-MDFDSLLKEGQQS-NH2 [PGC1β-10A, Ac-MDFDSLLKEGQQS-NH2]”, the IC50 at CBP80/CBP20 complex [1] is greater than 200 µM.

As for Ac-SLDFDDLLKQAQKNLRR-NH2 [PRC-Cterm (Ac-SLDFDDLLKQAQKNLRR-NH2)], in the test with CBP80/CBP20 complex [2], the IC50 worked out at 93 µM. That is a double-digit micromolar value.

B1: PGC1β-Cterm (Ac-AMDFDSLLKEAQQSLH-NH2) (peptide)
peptide: Ac-AMDFDSLLKEAQQSLH-NH2
notes: also called PGC1β-Cterm peptide; unlabeled version of the PGC1β peptide
In the test with CBP80/CBP20 complex [2], B1 gave an IC50 of 32 µM. In the test with CBP80/CBP20 complex [2], Ac-SLDFDSLLKEAQRSLRR-NH2 [PGC1α-Cterm (Ac-SLDFDSLLKEAQRSLRR-NH2)] came in with an IC50 of 26 µM. The same measure, in the same setting: in the case of Ac-MDFDSLLKEAQQSRRRRRRRR-NH2 [PGC1β-19 (Ac-MDFDSLLKEAQQSRRRRRRRR-NH2)] it was 80 µM. The same measure, in the same setting: in the case of Ac-MAFDSLLKEAQQS-NH2 [PGC1β-2A (Ac-MAFDSLLKEAQQS-NH2)] it was 50 µM; in that of Ac-MDFDSLLKEAQAS-NH2 [PGC1β-12A (Ac-MDFDSLLKEAQAS-NH2)], 56 µM. Same read-out and setting: in the case of Ac-MDFDSLLAEAQQS-NH2 [PGC1β-8A (Ac-MDFDSLLAEAQQS-NH2)] it was 72 µM.

These data come from patent US20180362587A1, “Compositions and Methods for Inhibiting CBP80 Binding to PGC1 Family of Co-Activators” (University of Rochester, priority 2015, published 2018).
